Target: T1, Chicken egg white lysozyme (CEWLZM) (Gallus gallus, UniProt P00698)
T1 construct: gene LYZ
Assay: SPR kinetics, CEWLZM amine-coupled on MUA gold chip, TA […], PBS pH […]°C
Format: binding

T1 sequence (P00698 19-147): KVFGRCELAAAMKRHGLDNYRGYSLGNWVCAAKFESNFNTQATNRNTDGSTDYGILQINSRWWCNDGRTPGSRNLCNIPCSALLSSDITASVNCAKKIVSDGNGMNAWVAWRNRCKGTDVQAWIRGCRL

- Kd: 41.7 µM
Structure (SMILES): O=C(OC[C@H]1O[C@@H](OC(=O)c2cc(O)c(O)c(OC(=O)c3cc(O)c(O)c(O)c3)c2)[C@H](OC(=O)c2cc(O)c(O)c(OC(=O)c3cc(O)c(O)c(O)c3)c2)[C@@H](OC(=O)c2cc(O)c(O)c(OC(=O)c3cc(O)c(O)c(O)c3)c2)[C@@H]1OC(=O)c1cc(O)c(O)c(OC(=O)c2cc(O)c(O)c(O)c2)c1)c1cc(O)c(O)c(OC(=O)c2cc(O)c(O)c(O)c2)c1 [TA, tannic acid]

Source: paper PMC11521726, “Surface plasmon resonance, molecular docking, and molecular dynamics simulation studies of lysozyme interaction with tannic acid” (Food Science & Nutrition, 2024)
